Reference: patent US7247634B2, “Rifamycin derivatives effective against drug-resistant microbes” (Cumbre Pharmaceuticals Inc., priority 2004, dated 2007)
In brackets after ≈: the same amount, converted by molar mass.

Columns and labels:
Assay type in all cases: cell-based
[1] = system: Staphylococcus aureus ATCC29213; assay: MIC, microbroth dilution (NCCLS); details: rifS strain, Cation-Adjusted Mueller-Hinton Broth, 37° C., read-out: Antimicrobial activity (MIC)
[2] = system: Staphylococcus aureus ATCC29213 rpoB^D417Y; assay: microbe, parasite or virus in culture; details: ATCC29213, read-out: Antimicrobial activity (MIC)
Outline: (§1)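 MICs by NCCLS broth microdilution, incubation at 37 °C, in cation-adjusted Mueller-Hinton broth. Strains: rifampin-resistant S. aureus ATCC 29213 with rpoB D417Y or H418Y, and quinolone-resistant EN1252a carrying gyrA S84L plus grlA S80F.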

[3] = system: Staphylococcus aureus ATCC29213 rpoB^H418Y; assay: microbe, parasite or virus in culture; details: ATCC29213, read-out: Antimicrobial activity (MIC)
Outline: as §1

[4] = system: Staphylococcus aureus EN1252a gyrA^S84L grlA^S80F; assay: microbe, parasite or virus in culture; details: read-out: Antimicrobial activity (MIC)
Outline: as §1

[5] = system: Staphylococcus epidermidis ATCC12228; assay: MIC, microbroth dilution (NCCLS); details: rifS strain, Cation-Adjusted Mueller-Hinton Broth, 37° C., read-out: Antimicrobial activity (MIC)
[6] = system: Streptococcus pneumoniae ATCC6303; assay: MIC, microbroth dilution (NCCLS); details: rifS strain, THY Broth with 1 mg/mL catalase, 5% CO2, 37° C., read-out: Antimicrobial activity (MIC)
[7] = system: Streptococcus pyogenes ATCC19615; assay: MIC, microbroth dilution (NCCLS); details: rifS strain, THY Broth, 37° C., read-out: Antimicrobial activity (MIC)
[8] = system: Enterococcus faecalis ATCC29212; assay: MIC, microbroth dilution (NCCLS); details: rifS strain, BHI Broth, 37° C., read-out: Antimicrobial activity (MIC)
[9] = system: Haemophilus influenzae ATCC10211; assay: MIC, microbroth dilution (NCCLS); details: rifS strain, BHI Broth with NAD and hematin, 37° C., read-out: Antimicrobial activity (MIC)
[10] = system: Escherichia coli ATCC25922; assay: MIC, microbroth dilution (NCCLS); details: rifS strain, Cation-Adjusted Mueller-Hinton Broth, 37° C., read-out: Antimicrobial activity (MIC)
[11] = system: Mycobacterium smegmatis ATCC700084; assay: MIC, microbroth dilution (NCCLS); details: Mycolicibacterium smegmatis, rifS strain, Middlebrook Broth plus ADC Enrichment, 37° C., read-out: Antimicrobial activity (MIC)

Structure (SMILES)	MIC [1]	MIC [2]	MIC [3]	MIC [4]	MIC [5]	MIC [6]	MIC [7]	MIC [8]	MIC [9]	MIC [10]	MIC [11]
COc1c(N2CC3CCCN(C4CCN(C5=C6NC(=O)/C(C)=C\C=C\[C@H](C)[C@H](O)[C@@H](C)[C@@H](O)[C@@H](C)[C@H](OC(C)=O)[C@H](C)[C@@H](OC)/C=C/O[C@@]7(C)Oc8c(C)c(O)c(c(c8C7=O)C5=O)C6=O)CC4)C3C2)c(F)cc2c(=O)c(C(=O)O)cn(C3CC3)c12 (stereo partly drawn) [Example 35, 3-{4-[6-(3-Carboxy-1-cyclopropyl-6-fluoro-8-methoxy-4-oxo-1,4-dihydroquinolin-7-yl)-octahydro-pyrrolo[3,4-b]-pyrridin-1-yl]-piperidin-1-yl}rifamycin S]	0.004 to 0.5 µg/mL (≈ 0.00339 to 0.424 µM)	0.06 to 32 µg/mL (≈ 0.0509 to 27.2 µM)	0.06 to 16 µg/mL (≈ 0.0509 to 13.6 µM)	0.004 to 0.5 µg/mL (≈ 0.00339 to 0.424 µM)	0.008 to 0.063 µg/mL (≈ 0.00679 to 0.0535 µM)	0.008 to 0.125 µg/mL (≈ 0.00679 to 0.106 µM)	0.008 to 0.063 µg/mL (≈ 0.00679 to 0.0535 µM)	2 to 32 µg/mL (≈ 1.7 to 27.2 µM)	0.125 to 2 µg/mL (≈ 0.106 to 1.7 µM)	0.125 to 8 µg/mL (≈ 0.106 to 6.79 µM)	0.5 to 64 µg/mL
CO[C@H]1/C=C/O[C@@]2(C)Oc3c(C)c(O)c4c(c3C2=O)C(=O)C(N2CCC(N3CCN(c5c(F)cc6c(=O)c(C(=O)O)cn(C7CC7)c6c5Cl)CC3)CC2)=C(NC(=O)/C(C)=C\C=C\[C@H](C)[C@H](O)[C@@H](C)[C@@H](O)[C@@H](C)[C@H](OC(C)=O)[C@@H]1C)C4=O [Example 38, 3-{4-[1-(3-Carboxy-8-chloro-1-cyclopropyl-6-fluoro-4-oxo-1,4-dihydroquinolin-7-yl)-piperazin-4-yl]-piperidin-1-yl}rifamycin S]	0.004 to 0.5 µg/mL (≈ 0.0035 to 0.438 µM)	0.06 to 32 µg/mL (≈ 0.0525 to 28 µM)	0.06 to 16 µg/mL (≈ 0.0525 to 14 µM)	0.004 to 0.5 µg/mL (≈ 0.0035 to 0.438 µM)	0.008 to 0.063 µg/mL (≈ 0.007 to 0.0551 µM)	0.008 to 0.125 µg/mL (≈ 0.007 to 0.109 µM)	0.008 to 0.063 µg/mL (≈ 0.007 to 0.0551 µM)	2 to 32 µg/mL (≈ 1.75 to 28 µM)	0.125 to 2 µg/mL (≈ 0.109 to 1.75 µM)	0.125 to 8 µg/mL (≈ 0.109 to 7 µM)	0.5 to 64 µg/mL
COc1c(N2CCC(C(C)NC3CCN(C4=C5NC(=O)/C(C)=C\C=C\[C@H](C)[C@H](O)[C@@H](C)[C@@H](O)[C@@H](C)[C@H](OC(C)=O)[C@H](C)[C@@H](OC)/C=C/O[C@@]6(C)Oc7c(C)c(O)c(c(c7C6=O)C4=O)C5=O)CC3)C2)c(F)cc2c(=O)c(C(=O)O)cn(C3CC3)c12 (stereo partly drawn) [Example 39, 3-{4-[1-(3-Carboxy-1-cyclopropyl-6-fluoro-8-methoxy-4-oxo-1,4-dihydroquinolin-7-yl)-pyrrolidin-3-ylethylamino]-piperidin-1-yl}rifamycin S]	0.004 to 0.5 µg/mL (≈ 0.00343 to 0.429 µM)	0.06 to 32 µg/mL (≈ 0.0514 to 27.4 µM)	0.06 to 16 µg/mL (≈ 0.0514 to 13.7 µM)	0.004 to 0.5 µg/mL (≈ 0.00343 to 0.429 µM)	0.008 to 0.063 µg/mL (≈ 0.00686 to 0.054 µM)	0.008 to 0.125 µg/mL (≈ 0.00686 to 0.107 µM)	0.008 to 0.063 µg/mL (≈ 0.00686 to 0.054 µM)	2 to 32 µg/mL (≈ 1.71 to 27.4 µM)	0.125 to 2 µg/mL (≈ 0.107 to 1.71 µM)	0.125 to 8 µg/mL (≈ 0.107 to 6.86 µM)	0.5 to 64 µg/mL
COc1c(N2CCN(C(=O)C3CN(C4=C5NC(=O)/C(C)=C\C=C\[C@H](C)[C@H](O)[C@@H](C)[C@@H](O)[C@@H](C)[C@H](OC(C)=O)[C@H](C)[C@@H](OC)/C=C/O[C@@]6(C)Oc7c(C)c(O)c(c(c7C6=O)C4=O)C5=O)C3)CC2)c(F)cc2c(=O)c(C(=O)O)cn(C3CC3)c12 [Example 45, 3-{3-[4-(3-Carboxy-1-cyclopropyl-6-fluoro-8-methoxy-4-oxo-1,4-dihydroquinolin-7-yl)-piperazin-1-yl-carbonyl]-azetidin-1-yl}rifamycin S]	0.004 to 0.5 µg/mL (≈ 0.00351 to 0.439 µM)	0.06 to 32 µg/mL (≈ 0.0527 to 28.1 µM)	0.06 to 16 µg/mL (≈ 0.0527 to 14.1 µM)	0.004 to 0.5 µg/mL (≈ 0.00351 to 0.439 µM)	0.008 to 0.063 µg/mL (≈ 0.00703 to 0.0554 µM)	0.008 to 0.125 µg/mL (≈ 0.00703 to 0.11 µM)	0.008 to 0.063 µg/mL (≈ 0.00703 to 0.0554 µM)	2 to 32 µg/mL (≈ 1.76 to 28.1 µM)	0.125 to 2 µg/mL (≈ 0.11 to 1.76 µM)	0.125 to 8 µg/mL (≈ 0.11 to 7.03 µM)	0.5 to 64 µg/mL
COc1c(N2CC(NC(=O)C3CN(C4=C5NC(=O)/C(C)=C\C=C\[C@H](C)[C@H](O)[C@@H](C)[C@@H](O)[C@@H](C)[C@H](OC(C)=O)[C@H](C)[C@@H](OC)/C=C/O[C@@]6(C)Oc7c(C)c(O)c(c(c7C6=O)C4=O)C5=O)C3)C2)c(F)cc2c(=O)c(C(=O)O)cn(C3CC3)c12 [Example 47, 3-{3-[1-(3-Carboxy-1-cyclopropyl-6-fluoro-8-methoxy-4-oxo-1,4-dihydroquinolin-7-yl)-azetidin-3-ylcarbamoyl]-azetidin-1-yl}rifamycin S]	0.004 to 0.5 µg/mL (≈ 0.00356 to 0.445 µM)	0.06 to 32 µg/mL (≈ 0.0534 to 28.5 µM)	0.06 to 16 µg/mL (≈ 0.0534 to 14.2 µM)	0.004 to 0.5 µg/mL (≈ 0.00356 to 0.445 µM)	0.008 to 0.063 µg/mL (≈ 0.00712 to 0.056 µM)	0.008 to 0.125 µg/mL (≈ 0.00712 to 0.111 µM)	0.008 to 0.063 µg/mL (≈ 0.00712 to 0.056 µM)	2 to 32 µg/mL (≈ 1.78 to 28.5 µM)	0.125 to 2 µg/mL (≈ 0.111 to 1.78 µM)	0.125 to 8 µg/mL (≈ 0.111 to 7.12 µM)	0.5 to 64 µg/mL
CO[C@H]1/C=C/O[C@@]2(C)Oc3c(C)c(O)c4c(c3C2=O)C(=O)C(N2CC(C(=O)N3CCN(c5ccc(N6C[C@H](CNC(C)=O)OC6=O)cc5F)CC3)C2)=C(NC(=O)/C(C)=C\C=C\[C@H](C)[C@H](O)[C@@H](C)[C@@H](O)[C@@H](C)[C@H](OC(C)=O)[C@@H]1C)C4=O [Example 48, 3-{3-(4-[1-(5-methyl-acetamidyl-2-oxo-oxazolidin-3-yl)-5-fluoro-phen-4-yl]-piperazin-1-ylcarbonyl)-azetidin-1-yl}-rifamycin S]	0.004 to 0.5 µg/mL (≈ 0.00359 to 0.449 µM)	0.06 to 32 µg/mL (≈ 0.0539 to 28.7 µM)	0.06 to 16 µg/mL (≈ 0.0539 to 14.4 µM)	0.004 to 0.5 µg/mL (≈ 0.00359 to 0.449 µM)	0.008 to 0.063 µg/mL (≈ 0.00719 to 0.0566 µM)	0.008 to 0.125 µg/mL (≈ 0.00719 to 0.112 µM)	0.008 to 0.063 µg/mL (≈ 0.00719 to 0.0566 µM)	2 to 32 µg/mL (≈ 1.8 to 28.7 µM)	0.125 to 2 µg/mL (≈ 0.112 to 1.8 µM)	0.125 to 8 µg/mL (≈ 0.112 to 7.19 µM)	0.5 to 64 µg/mL
